Drawing on patent publication US9133187B2, “Serine/threonine kinase inhibitors” (ARRAY BIOPHARMA INC., priority 2011, dated 2015), this text covers IC50 for 14 molecules.

One assay concerns HCT116 cells. The assay can be described thus: Cell Proliferation/Viability Assay (Cell Titer-Blue, 72 h). To be noted: Homo sapiens, HCT-116, 3-day (72-hour) incubation. The format is cell-based. On the procedure: The cytotoxic or cytostatic activity of formula I exemplary compounds was measured by: establishing a proliferating mammalian tumor cell line in a cell culture medium, adding a formula I compound, culturing the cells for a period from about 6 h to about 5 d; and measuring cell viability (Example 78). Cell-based in vitro assays were used to measure viability, i.e. proliferation (IC50), cytotoxicity (EC50).
Viable cells after a 3-day (72-hour) incubation with ERK compounds were quantified using the Cell Titer-Blue Cell Viability Assay from Promega.
Materials and Methods: HCT116 cells were plated in 96 well micro-plates at a density of 1,000 cells/well. The cells were allowed to attach to micro-plate overnight at 37° C./5% CO2. After overnight attachment, diluted compounds were then added to the cells at a final concentration of 0.5% DMSO. After 3 days (72 hours) at 37° C./5% CO2, the number of viable cells was determined using the Cell Titer-Blue Cell Viability Assay from Promega. Briefly, Cell Titer-Blue reagent were added to the cells and incubated for 1 hour. Fluorescense (560 nmexcitation/590 nmemission) was then read using a fluorescence micro-plate reader. Background from high concentration ERK-inhibited wells was subtracted. Representative date is in TABLE III (infra).

Assay [1] deals with human ERK-2 (Mitogen Activated Kinase 1) (Homo sapiens (Human), UniProt P28482). The assay can be described thus: ERK-2 Enzymatic Assay. The format is biochemical. To be noted: 5 nM ERK-2, 25 μM ATP, Omnia peptide S/T17; read-out: ERK Inhibition IC50. An outline of the steps:
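Recombinant N-terminal 6-His human ERK-2 (aa 8-360, E. coli) with fluorescent Omnia peptide S/T17 substrate, ambient temperature, read kinetically every 50 s for ~30 min (Ex 340/Em 495 nm). Linear rates converted to percent of control; IC50 from four-parameter fit.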

The subject of assay [2] is PMA-stimulated P90RSK(Ser380) phosphorylation in HepG2 cells. The assay can be described thus: Cellular P90RSK(Ser380) Phosphorylation Assay. The format is cell-based. To be noted: Homo sapiens, 1.5 h compound incubation, PMA stimulation, pP90RSK(Ser380) normalized to GAPDH, read-out: Cell Assay IC50. An outline of the steps:
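HepG2 cells were pretreated with compound (0.5% DMSO final) for 1.5 h, then stimulated with PMA 100 ng/mL for 30 min at 37° C. Fixed, permeabilized cells were immunostained for pP90RSK(Ser380) and GAPDH. The two-channel infrared fluorescence was read, and the phospho signal was normalized to GAPDH.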

By IC50 is commonly meant the concentration at which inhibition is half-maximal.

human ERK-2 (Mitogen Activated Kinase 1), sequence (P28482 8-360): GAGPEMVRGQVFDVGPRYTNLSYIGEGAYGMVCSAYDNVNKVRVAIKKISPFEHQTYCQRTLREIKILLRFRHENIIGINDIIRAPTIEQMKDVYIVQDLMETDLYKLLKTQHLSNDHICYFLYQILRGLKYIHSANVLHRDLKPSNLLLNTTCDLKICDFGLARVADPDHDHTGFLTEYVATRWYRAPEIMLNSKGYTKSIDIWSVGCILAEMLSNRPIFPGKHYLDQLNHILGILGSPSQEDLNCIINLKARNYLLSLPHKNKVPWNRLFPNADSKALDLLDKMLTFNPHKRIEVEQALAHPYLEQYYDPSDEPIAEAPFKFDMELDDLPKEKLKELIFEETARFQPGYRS

Regarding `C[C@@H](CO)Nc1cc2c(cn1)CCN(C(=O)N[C@H](C)c1ccc(Cl)c(Cl)c1)C2` [Compound I-149, N—((R)-1-(3,4-dichlorophenyl)ethyl)-7-((S)-1-hydroxypropan-2-ylamino)-3,4-dihydro-2,6-naphthyridine-2(1H)-carboxamide], the IC50 is 4100 nM in the assay with HCT116 cells, 3 nM in assay [1] and 75.7 nM in assay [2].
In the same order, the values of `COCC[C@@H](NC(=O)N1CCc2cnc(NC3CCOCC3)nc2C1)c1ccc(Cl)c(Cl)c1` [Compound I-28, (R)—N-(1-(3,4-dichlorophenyl)-3-methoxypropyl)-2-(tetrahydro-2H-pyran-4-ylamino)-5,6-dihydropyrido[3,4-d]pyrimidine-7(8H)-carboxamide] are 1900 nM, 1.6 nM and 32.8 nM.
With `O=C(N[C@@H](c1ccc(Cl)c(Cl)c1)c1cnco1)N1CCc2cnc(NC3CCOCC3)nc2C1` [Compound I-1, (S)—N-((3,4-dichlorophenyl)(oxazol-5-yl)methyl)-2-(tetrahydro-2H-pyran-4-ylamino)-5,6-dihydropyrido[3,4-d]pyrimidine-7(8H)-carboxamide], the IC50 with HCT116 cells is 301 nM; in assay [1] it was 1.1 nM; in assay [2] it was 4.55 nM.
The matching figures for `CN1C[C@@H](NC(=O)N2CCc3cnc(NC4CCOCC4)nc3C2)[C@H](c2ccc(Cl)c(F)c2)C1` [Compound I-124, N-((3S,4R)-4-(4-chloro-3-fluorophenyl)-1-methylpyrrolidin-3-yl)-2-(tetrahydro-2H-pyran-4-ylamino)-5,6-dihydropyrido[3,4-d]pyrimidine-7(8H)-carboxamide]: 47.5 nM, 2.3 nM and 5.95 nM.
In the same order, the values of `CC(C)Nc1ncc2c(n1)CN(C(=O)N[C@@H]1CN(C)C[C@H]1c1ccc(C(F)(F)F)c(F)c1)CC2` [Compound I-120, N-((3S,4R)-4-(3-fluoro-4-(trifluoromethyl)phenyl)-1-methylpyrrolidin-3-yl)-2-(isopropylamino)-5,6-dihydropyrido[3,4-d]pyrimidine-7(8H)-carboxamide] are 557 nM, 1.6 nM and 37.8 nM.
In the same order, the values of `O=C(NCc1cc2ccccc2[nH]1)N1CCc2cnc(NC3CCOCC3)nc2C1` [Compound I-114, N-((1H-indol-2-yl)methyl)-2-(tetrahydro-2H-pyran-4-ylamino)-5,6-dihydropyrido[3,4-d]pyrimidine-7(8H)-carboxamide] are 1500 nM, 23.2 nM and 25.4 nM.
For the molecule `CC[C@@H](NC(=O)N1CCc2cnc(NC3CCOCC3)nc2C1)c1ccc(OC(F)F)cc1` [Compound I-27, (R)—N-(1-(4-(difluoromethoxy)phenyl)propyl)-2-(tetrahydro-2H-pyran-4-ylamino)-5,6-dihydropyrido[3,4-d]pyrimidine-7(8H)-carboxamide], the IC50 was determined as 628 nM with HCT116 cells, 1.5 nM in assay [1] and 26.9 nM in assay [2].
The matching figures for `CC(C)Nc1ncc2c(n1)CN(C(=O)N[C@@H](c1ccc(C(F)(F)F)c(F)c1)[C@H]1CCCN1)CC2` [Compound I-15, N—((S)-(3-fluoro-4-(trifluoromethyl)phenyl)((R)-pyrrolidin-2-yl)methyl)-2-(isopropylamino)-5,6-dihydropyrido[3,4-d]pyrimidine-7(8H)-carboxamide]: 625 nM, 1.1 nM and 37.3 nM.
In the same order, the values of `CC(C)Nc1ncc2c(n1)CN(C(=O)N[C@H](CCC#N)c1ccc(Cl)c(Cl)c1)CC2` [Compound I-104, (R)—N-(3-cyano-1-(3,4-dichlorophenyl)propyl)-2-(isopropylamino)-5,6-dihydropyrido[3,4-d]pyrimidine-7(8H)-carboxamide] are 1600 nM, 2.2 nM and 58.6 nM.
For `C[C@@H](CO)Nc1ncc2c(n1)CN(C(=O)N[C@H](CCO)c1ccc(Cl)c(Cl)c1)CC2` [Compound I-33, N—((R)-1-(3,4-dichlorophenyl)-3-hydroxypropyl)-2-((S)-1-hydroxypropan-2-ylamino)-5,6-dihydropyrido[3,4-d]pyrimidine-7(8H)-carboxamide], the IC50 in the assay with HCT116 cells came out at 1900 nM; in assay [1], 1.1 nM; in assay [2] it was 55 nM.
`CC(C)Nc1ncc2c(n1)CN(C(=O)N[C@H](CO)c1ccc(Cl)c(Cl)c1)CC2` [Compound I-16, (S)—N-(1-(3,4-dichlorophenyl)-2-hydroxyethyl)-2-(isopropylamino)-5,6-dihydropyrido[3,4-d]pyrimidine-7(8H)-carboxamide]: the IC50 in the assay on HCT116 cells turned out to be 2100 nM; in assay [1] it was 1.1 nM; in assay [2], 52.4 nM.
On to `C[C@@H](NC(=O)N1CCc2cnc(N[C@H]3CC[C@H](O)C3)nc2C1)c1ccc(C(F)(F)F)c(F)c1` [Compound I-52, N—((R)-1-(3-fluoro-4-(trifluoromethyl)phenyl)ethyl)-2-((1S,3S)-3-hydroxycyclopentylamino)-5,6-dihydropyrido[3,4-d]pyrimidine-7(8H)-carboxamide], for which the IC50 was found to be 1400 nM in the assay with HCT116 cells, 2.7 nM in assay [1] and 57 nM in assay [2].
As to `CC(C)Nc1ncc2c(n1)CN(C(=O)N[C@@H](c1ccc(Cl)c(Cl)c1)[C@H]1CCCN1C)CC2` [Compound I-61, N—((S)-(3,4-dichlorophenyl)((R)-1-methylpyrrolidin-2-yl)methyl)-2-(isopropylamino)-5,6-dihydropyrido[3,4-d]pyrimidine-7(8H)-carboxamide], the figures for the IC50 in assay [1] and in assay [2] were 2.9 nM and 93 nM, respectively.
As to `O=C(NC(c1cn[nH]c1)c1ccc(Cl)c(F)c1)N1CCc2cnc(NC3CCOCC3)nc2C1` (stereo not shown) [Compound I-7, N-((4-chloro-3-fluorophenyl)(1H-pyrazol-4-yl)methyl)-2-(tetrahydro-2H-pyran-4-ylamino)-5,6-dihydropyrido[3,4-d]pyrimidine-7(8H)-carboxamide], the IC50 in assay [1] was found to be 1.5 nM; in assay [2], 43.5 nM.
